# Measured values: publication PMC4517612 (MedChemComm, 2015)
# “And” between values parts separate entries of the source, which are not always exact repeats. Equal values may be shown once. Read-outs that look alike come from different tables or passages of the source.
# Key:
# [1] = tested on: CCI model of neuropathic pain (mechanoallodynia) in mice; assay: Mouse CCI model of neuropathic pain; assay type: in vivo; details: 3 μmol/kg p.o.; for duration of action in vivo (in words) / reversal of mechanoallodynia at 1 h (in words): CCI mice; for reversal of mechanoallodynia at 1 h (in words): 1 h after drug treatment
# [2] = tested on: CCI model of neuropathic pain (mechanoallodynia) in mice; details: 3 μmol/kg p.o., ref Tosh et al.[8], cited from earlier work
# hA3AR = molecular target: T1, hA3AR (Homo sapiens, UniProt P0DMS8); assay: Radioligand binding at hA3AR
# T1 sequence (P0DMS8 1-318): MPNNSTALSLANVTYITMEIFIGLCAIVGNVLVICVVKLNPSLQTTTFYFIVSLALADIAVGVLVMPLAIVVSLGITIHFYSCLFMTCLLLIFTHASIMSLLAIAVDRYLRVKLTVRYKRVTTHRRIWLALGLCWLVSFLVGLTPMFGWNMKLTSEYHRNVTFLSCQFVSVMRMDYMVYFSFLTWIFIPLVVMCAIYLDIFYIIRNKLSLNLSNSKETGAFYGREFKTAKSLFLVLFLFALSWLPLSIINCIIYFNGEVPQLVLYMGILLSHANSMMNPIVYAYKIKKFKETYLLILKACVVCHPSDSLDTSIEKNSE
SMILES,duration of action in vivo (in words) [1],reversal of mechanoallodynia at 1 h (in words) [1],other results
CNC(=O)[C@@]12C[C@@H]1[C@@H](n1cnc3c(NCCc4ccccc4)nc(-n4cc(-c5ccc(Cl)s5)nn4)nc31)[C@H](O)[C@@H]2O [Compound 18],prolonged in activity,,
CNC(=O)[C@@]12C[C@@H]1[C@@H](n1cnc3c(NC)nc(-n4cc(-c5cnn(C)c5)nn4)nc31)[C@H](O)[C@@H]2O [Compound 11],,nearly completely reversed,
CNC(=O)[C@@]12C[C@@H]1[C@@H](n1cnc3c(NC)nc(C#Cc4ccc(Cl)s4)nc31)[C@H](O)[C@@H]2O [Compound 2],,,"Effect at 3h (% ± SEM), pain protection [2]: 83% and 82.8 ± 11.2%; Max. effect Emax (% ± SEM), reversal of reduction in PWT of ipsilateral hind paw [2]: 93.3 ± 6.7%"
CNC(=O)[C@@]12C[C@@H]1[C@@H](n1cnc3c(NCc4cccc(Cl)c4)nc(-n4cc(-c5ccc(Cl)s5)nn4)nc31)[C@H](O)[C@@H]2O [Compound 17],nearly full protection up to 4 h,,"Effect at 3h (% ± SEM), pain protection ([1]; day 7 after CCI, mice, 3 h after administration): > 90%"
CNC(=O)[C@@]12C[C@@H]1[C@@H](n1cnc3c(NC)nc(-n4cc(-c5ccc(Br)s5)nn4)nc31)[C@H](O)[C@@H]2O [Compound 19],,nearly completely reversed,
CNC(=O)[C@@]12C[C@@H]1[C@@H](n1cnc3c(NC)nc(-n4cc(-c5ncccn5)nn4)nc31)[C@H](O)[C@@H]2O [Compound 9],,nearly completely reversed,ligand efficiency with respect to A3AR affinity (hA3AR): 0.27
CNC(=O)[C@@]12C[C@@H]1[C@@H](n1cnc3c(NC4CCC4)nc(-n4cc(-c5ccc(Cl)s5)nn4)nc31)[C@H](O)[C@@H]2O [Compound 16],prolonged in activity,,
CCNc1nc(-n2cc(-c3ccc(Cl)s3)nn2)nc2c1ncn2[C@H]1[C@H](O)[C@H](O)[C@]2(C(=O)NC)C[C@H]12 [Compound 15],,nearly completely reversed,
CNC(=O)[C@@]12C[C@@H]1[C@@H](n1cnc3c(NCc4cccc(Cl)c4)nc(C#Cc4ccc(F)c(F)c4)nc31)[C@H](O)[C@@H]2O [Compound 1],,,"Effect at 3h (% ± SEM), pain protection [2]: 24% and 23.7 ± 10.8%; Max. effect Emax (% ± SEM), reversal of reduction in PWT of ipsilateral hind paw [2]: 100 ± 0.0%"
